Results: patent publication US11787775B2, “Therapeutic compounds and methods of use” (priority 2020, dated 2023)

What was measured:
Assay type in all cases: binding
TEAD1 = TEAD1 (Homo sapiens (Human), UniProt P28347); assay: TEAD lipid pocket TR-FRET (Lipid HTRF) probe competition assay; settings: 30 mins incubation with compound; read-out: Lipid HTRF TEAD1 IC50
TEAD2 = TEAD2 (Homo sapiens (Human), UniProt Q15562); assay: as above; settings: 30 mins incubation with compound; read-out: Lipid HTRF TEAD2 IC50
TEAD3 = TEAD3 (Homo sapiens (Human), UniProt Q99594); assay: as above; settings: 30 mins incubation with compound
TEAD4 = TEAD4 (Homo sapiens (Human), UniProt Q15561); assay: as above; settings: 30 mins incubation with compound; read-out: Lipid HTRF TEAD4 IC50
TEAD1 YAP50-100 = TEAD1 YAP50-100 (Homo sapiens (Human), UniProt P28347); assay: TEAD-YAP protein-protein interaction HTRF assay; settings: TEAD1 YAP50-100 HTRF combined EC50, 30 mins incubation with compound
Experimental: (§1) Purified His-tagged TEAD protein (YAP Binding Domain, amino acids 217-447) is pre-incubated with Europium labelled anti-His antibody tracer (Perkin Elmer Cat #AD0110). Small molecule Inhibitors are then incubated with the TEAD-Eu protein complex for 30 minutes or 4 hours to allow for binding to TEAD protein. Biotinylated YAP peptide for TEAD-YAP assays (AA's 50-100) or biotinylated TAZ peptide for TEAD-TAZ assays (AA's 13-57) that has been pre-incubated with streptavidin −xl665 acceptor (CIS-Bio Cat #610SAXAC) or is added to the compound-TEAD mix. The TEAD-YAP-inhibitor mixture is then incubated for 60 minutes at room temperature. All reactions are carried out in a polystyrene plate. After 60 minutes, the plate is read on a plate reader using TR-FRET mode with wavelengths of 665 nm/615 nm. If YAP or TAZ binds to TEAD as expected, a TR-FRET signal results from the proximity of YAP or TAZ and TEAD after binding. If an inhibitor such as peptide 17 (Selleckchem Cat #S8164) interferes with YAP-TEAD or TAZ-TEAD binding, the disruption of the YAP or TAZ:TEAD interaction results in a decrease in TR-FRET signal. The potency of compounds as YAP:TEAD or TAZ:TEAD protein-protein interaction (PPi) inhibitors is determined by an IC50 or EC50 value generated using a non-linear four parameter curve fit. The extent to which representative examples of the disclosed compounds are able to inhibit interaction between TEAD1, TEAD2, TEAD3 or TEAD4 and YAP truncated from amino acids 50-100 or TAZ truncated from amino acids 13-57 as measured by Homogeneous Time Resolved Fluorescence (HTRF) to generate EC50 and IC50 data.
(§2) Note that the “Compound Number” in Table 4 corresponds to the “Compound Number” in Table 1. […]

TEAD2 YAP50-100 = TEAD2 YAP50-100 (Homo sapiens (Human), UniProt Q15562); assay: TEAD-YAP protein-protein interaction HTRF assay; settings: TEAD2 YAP50-100 HTRF combined EC50, 30 mins incubation with compound
Experimental: as §1, §2

TEAD3 YAP50-100 = TEAD3 YAP50-100 (Homo sapiens (Human), UniProt Q99594); assay: TEAD-YAP protein-protein interaction HTRF assay; settings: TEAD3 YAP50-100 HTRF combined EC50, 30 mins incubation with compound
Experimental: as §1, §2

TEAD4 YAP50-100 = TEAD4 YAP50-100 (Homo sapiens (Human), UniProt Q15561); assay: TEAD-YAP protein-protein interaction HTRF assay; settings: TEAD4 YAP50-100 HTRF combined EC50, 30 mins incubation with compound
Experimental: as §1, §2

Sequence of TEAD1 YAP50-100 (P28347 209-426): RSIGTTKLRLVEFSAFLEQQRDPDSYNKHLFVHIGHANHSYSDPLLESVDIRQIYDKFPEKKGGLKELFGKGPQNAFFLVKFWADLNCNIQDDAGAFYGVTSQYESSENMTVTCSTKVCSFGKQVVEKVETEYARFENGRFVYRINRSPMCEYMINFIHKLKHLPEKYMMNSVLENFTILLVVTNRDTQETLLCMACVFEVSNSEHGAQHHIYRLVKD
Sequence of TEAD3 (Q99594 whole entry, species assumed): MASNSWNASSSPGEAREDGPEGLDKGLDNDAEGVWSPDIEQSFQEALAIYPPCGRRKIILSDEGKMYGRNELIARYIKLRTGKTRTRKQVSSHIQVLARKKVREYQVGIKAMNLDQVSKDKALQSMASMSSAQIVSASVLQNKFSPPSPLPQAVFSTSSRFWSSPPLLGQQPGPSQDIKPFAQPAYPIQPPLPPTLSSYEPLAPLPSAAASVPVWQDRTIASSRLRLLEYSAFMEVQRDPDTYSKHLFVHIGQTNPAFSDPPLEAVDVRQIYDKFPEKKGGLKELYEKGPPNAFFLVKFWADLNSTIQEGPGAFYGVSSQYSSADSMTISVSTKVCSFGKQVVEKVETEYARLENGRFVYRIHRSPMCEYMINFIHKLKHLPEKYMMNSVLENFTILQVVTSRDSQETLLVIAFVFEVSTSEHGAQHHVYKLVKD
Sequence of TEAD4 YAP50-100 (Q15561 217-434): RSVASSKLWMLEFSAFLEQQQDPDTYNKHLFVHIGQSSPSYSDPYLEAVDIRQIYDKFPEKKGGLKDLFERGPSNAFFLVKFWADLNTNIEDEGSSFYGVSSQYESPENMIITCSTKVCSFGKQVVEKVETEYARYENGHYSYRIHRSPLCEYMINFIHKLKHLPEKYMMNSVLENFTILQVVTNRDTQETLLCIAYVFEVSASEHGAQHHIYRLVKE
Sequence of TEAD1 (P28347 whole entry, species assumed): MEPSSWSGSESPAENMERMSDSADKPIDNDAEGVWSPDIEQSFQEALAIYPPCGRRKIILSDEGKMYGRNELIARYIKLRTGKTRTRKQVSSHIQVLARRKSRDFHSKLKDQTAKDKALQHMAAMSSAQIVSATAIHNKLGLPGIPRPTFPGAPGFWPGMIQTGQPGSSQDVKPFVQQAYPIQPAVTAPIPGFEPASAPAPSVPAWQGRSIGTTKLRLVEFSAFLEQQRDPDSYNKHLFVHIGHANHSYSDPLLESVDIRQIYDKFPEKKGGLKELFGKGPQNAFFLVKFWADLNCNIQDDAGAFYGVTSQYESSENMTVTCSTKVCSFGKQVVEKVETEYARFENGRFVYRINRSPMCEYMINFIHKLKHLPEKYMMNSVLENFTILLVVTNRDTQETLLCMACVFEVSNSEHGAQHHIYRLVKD
Sequence of TEAD2 YAP50-100 (Q15562 217-447): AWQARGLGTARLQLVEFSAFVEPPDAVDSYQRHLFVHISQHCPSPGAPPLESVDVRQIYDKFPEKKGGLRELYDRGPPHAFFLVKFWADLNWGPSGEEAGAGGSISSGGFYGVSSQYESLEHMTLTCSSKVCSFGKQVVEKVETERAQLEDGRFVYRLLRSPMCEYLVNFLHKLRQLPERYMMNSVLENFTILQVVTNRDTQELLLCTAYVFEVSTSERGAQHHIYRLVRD
Sequence of TEAD3 YAP50-100 (Q99594 218-435): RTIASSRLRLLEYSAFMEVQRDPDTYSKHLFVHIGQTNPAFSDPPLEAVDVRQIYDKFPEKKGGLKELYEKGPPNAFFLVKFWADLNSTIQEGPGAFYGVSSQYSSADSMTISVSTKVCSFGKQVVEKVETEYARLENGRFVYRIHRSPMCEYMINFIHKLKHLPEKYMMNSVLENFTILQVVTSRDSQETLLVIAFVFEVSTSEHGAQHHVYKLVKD
Sequence of TEAD4 (Q15561 whole entry, species assumed): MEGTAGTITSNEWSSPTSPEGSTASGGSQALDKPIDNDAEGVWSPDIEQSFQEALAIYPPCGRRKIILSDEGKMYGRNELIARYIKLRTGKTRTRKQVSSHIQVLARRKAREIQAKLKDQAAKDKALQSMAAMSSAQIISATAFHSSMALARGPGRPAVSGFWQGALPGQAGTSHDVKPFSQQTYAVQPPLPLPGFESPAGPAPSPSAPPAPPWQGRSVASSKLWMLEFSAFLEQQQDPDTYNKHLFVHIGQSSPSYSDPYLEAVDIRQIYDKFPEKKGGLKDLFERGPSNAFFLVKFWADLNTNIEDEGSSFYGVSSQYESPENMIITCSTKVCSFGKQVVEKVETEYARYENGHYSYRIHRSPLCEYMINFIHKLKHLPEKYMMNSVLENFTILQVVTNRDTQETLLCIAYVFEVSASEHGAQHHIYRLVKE
Sequence of TEAD2 (Q15562 whole entry): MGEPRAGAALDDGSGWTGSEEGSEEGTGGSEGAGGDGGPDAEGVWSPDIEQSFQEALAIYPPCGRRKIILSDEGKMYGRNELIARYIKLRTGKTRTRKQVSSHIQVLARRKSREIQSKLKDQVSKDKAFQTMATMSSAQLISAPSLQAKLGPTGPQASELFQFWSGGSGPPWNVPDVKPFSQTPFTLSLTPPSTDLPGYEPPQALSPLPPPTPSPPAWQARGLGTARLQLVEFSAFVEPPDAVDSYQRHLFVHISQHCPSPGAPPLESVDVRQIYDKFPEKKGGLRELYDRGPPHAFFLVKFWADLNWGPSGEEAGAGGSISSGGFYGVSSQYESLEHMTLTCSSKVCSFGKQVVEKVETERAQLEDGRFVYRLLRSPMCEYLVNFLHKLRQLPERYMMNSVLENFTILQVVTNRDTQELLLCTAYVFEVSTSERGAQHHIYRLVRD

SMILES | IC50 (TEAD1) | IC50 (TEAD2) | IC50 (TEAD3) | IC50 (TEAD4) | EC50 (TEAD1 YAP50-100) | EC50 (TEAD2 YAP50-100) | EC50 (TEAD3 YAP50-100) | EC50 (TEAD4 YAP50-100)
C=C(CNc1cc(-c2c(F)cc(C(C)C)cc2F)c2c(c1C#N)CCO2)C(=O)O [Compound 28, 2-[[[4-cyano-7-(2,6-difluoro-4-isopropyl-phenyl)-2,3-dihydrobenzofuran-5-yl]amino]methyl]prop-2-enoic acid] | 690 nM | 350 nM | 16000 nM | 320 nM | > 50000 nM | > 50000 nM | > 50000 nM | > 50000 nM
C=C(CNc1cc(-c2ccc(C(C)C)cc2)c2c(c1C#N)CCO2)C(=O)NC [Compound 5, 2-[[[4-cyano-7-(4-isopropylphenyl)-2,3-dihydrobenzofuran-5-yl]amino]methyl]-N-methyl-prop-2-enamide] | 1600 nM | 2000 nM | > 50000 nM | 1300 nM | > 50000 nM | > 50000 nM | > 50000 nM | > 50000 nM
C=C(CNc1cc2c(c(-c3ccc(C(C)C)cc3)c1)OCC2)C(=O)O [Compound 1, 2-[[[7-(4-isopropylphenyl)-2,3-dihydrobenzofuran-5-yl]amino]methyl]prop-2-enoic acid] | 220 nM | 220 nM | 8400 nM | 40 nM | 170 nM | 100 nM | > 50000 nM | 50 nM
C=C(CNc1cc(-c2ccc(OC(F)(F)F)cc2)c2c(c1C#N)CCO2)C(=O)O [Compound 18, 2-[[[4-cyano-7-[4-(trifluoromethoxy)phenyl]-2,3-dihydrobenzofuran-5-yl]amino]methyl]prop-2-enoic acid] | 30 nM | 140 nM | 2500 nM | 30 nM | 20 nM | 90 nM | 7800 nM | 60 nM
C=C(CNc1cc2c(c(-c3ccc(C(C)C)cc3)c1)OCC2)C(N)=O [Compound 2, 2-[[[7-(4-isopropylphenyl)-2,3-dihydrobenzofuran-5-yl]amino]methyl]prop-2-enamide] | 590 nM | 80 nM | 18000 nM | 30 nM | 460 nM | 70 nM | 18000 nM | 90 nM
